Measured values published in publication PMC8772704, “Quantification of Fosfomycin in Combination with Nine Antibiotics in Human Plasma and Cation-Adjusted Mueller-Hinton II Broth via LCMS” (Antibiotics, 2022).

What was measured:
[1] = Autosampler stability at 4 °C of extracted antibiotic-spiked plasma/CAMHB samples; details: for Mean accuracy (%), Table S8 / Mean accuracy (%), Table S10: CAMHB extracted samples; for Mean accuracy (%), Table S8 / Mean accuracy (%), Table S7: 7 h autosampler 4 °C; for Mean accuracy (%), Table S10 / Mean accuracy (%), Table S9: 15 h autosampler 4 °C; for Mean accuracy (%), Table S7 / Mean accuracy (%), Table S9: plasma extracted samples
Protocol: (§1) The stability of fosfomycin in combination with other antibiotics in plasma/CAMHB was evaluated under various operational conditions. Spiked plasma/CAMHB samples were evaluated at 7 h and 15 h in the autosampler at 4 °C. Long-term stability was evaluated up to 4 weeks of antibiotic-spiked plasma/CAMHB samples at LQC, MQC, and HQC concentrations stored at −30 °C and −80 °C.

[2] = 32-day stability of stock solutions stored at −80 °C; assay type: physicochemical; details: stock solution stored at -80 °C; peak area Day 32 vs Day 1
Protocol: Stability of stock solutions
All stock solutions of antibiotics and their corresponding stable-isotope variants were measured prior to cold storage at -80 °C and tested at 32 days later.
Stability was determined by comparing the peak area of each drug between its Day 1 and Day 32 measurement. Acceptable criteria for stability was met if the […]

[3] = Long-term storage stability of antibiotics in combination with fosfomycin spiked in plasma/CAMHB (−30 °C, −80 °C); assay type: physicochemical; details: for Mean accuracy (%), Table S15 / Mean accuracy (%), Table S17 / Mean accuracy (%), Table S16 / Mean accuracy (%), Table S18: CAMHB; for Mean accuracy (%), Table S15 / Mean accuracy (%), Table S17 / Mean accuracy (%), Table S16 / Mean accuracy (%), Table S18 / Mean accuracy (%), Table S11 / Mean accuracy (%), Table S13 / Mean accuracy (%), Table S12 / Mean accuracy (%), Table S14: combination with fosfomycin; for Mean accuracy (%), Table S15 / Mean accuracy (%), Table S11: 2 weeks at -30 °C; for Mean accuracy (%), Table S17 / Mean accuracy (%), Table S13: 2 weeks at -80 °C; for Mean accuracy (%), Table S16 / Mean accuracy (%), Table S12: 4 weeks at -30 °C; for Mean accuracy (%), Table S18 / Mean accuracy (%), Table S14: 4 weeks at -80 °C; for Mean accuracy (%), Table S11 / Mean accuracy (%), Table S13 / Mean accuracy (%), Table S12 / Mean accuracy (%), Table S14: plasma
Protocol: as §1

[4] = HQC: nominal mg/L CAZ 150, FEP 200, PIP 250, ATM 300, MEM 200, DOR 175, LVX 30, CEFT 250, TZB 87.5, TGC 20, AVI 30, FOF 1000
[5] = LQC: nominal 1 mg/L (levofloxacin, avibactam 0.5; fosfomycin 10)
[6] = MQC: nominal mg/L CAZ 75, FEP 100, PIP 150, ATM 150, MEM 100, DOR 87.5, LVX 15, CEFT 125, TZB 43.75, TGC 10, AVI 15, FOF 500

SMILES	Mean accuracy (%), Table S8 ([1]; HQC (nominal as E15))	Mean accuracy (%), Table S8 ([1]; LQC (nominal as E13))	Mean accuracy (%), Table S8 ([1]; MQC (nominal as E14))	Mean accuracy (%), Table S10 ([1]; HQC (nominal as E15))	Mean accuracy (%), Table S10 ([1]; LQC (nominal as E13))	Mean accuracy (%), Table S10 ([1]; MQC (nominal as E14))	Mean accuracy (%), Table S7 [1, 4]	Mean accuracy (%), Table S7 [1, 5]	Mean accuracy (%), Table S7 [1, 6]	Mean accuracy (%), Table S9 ([1]; HQC (nominal as E15))	Mean accuracy (%), Table S9 ([1]; LQC (nominal as E13))	Mean accuracy (%), Table S9 ([1]; MQC (nominal as E14))	32 Day Stability (%) [2]	Mean accuracy (%), Table S15 ([3]; HQC (nominal as E15))	Mean accuracy (%), Table S15 ([3]; LQC (nominal as E13))	Mean accuracy (%), Table S15 ([3]; MQC (nominal as E14))	Mean accuracy (%), Table S17 ([3]; HQC (nominal as E15))	Mean accuracy (%), Table S17 ([3]; LQC (nominal as E13))	Mean accuracy (%), Table S17 ([3]; MQC (nominal as E14))	Mean accuracy (%), Table S16 ([3]; HQC (nominal as E15))	other results
NC(=O)[C@@H]1CC[C@@H]2CN1C(=O)N2OS(=O)(=O)O [Avibactam, avibactam]	106.4%	108.8%	104.2%	107.5%	108.3%	104.9%	96.2%	105.4%	100.7%	95.6%	103.4%	99.3%	102.63%	90.4%	93.7%	89.1%	95.3%	101.2%	95.4%	80.6%	Stability verdict (within ±15% of nominal) ([3]; CAMHB samples stored at −30 °C, 4 weeks): instability; Mean accuracy (%), Table S16 ([3]; LQC (nominal as E13)): 82.3%; Mean accuracy (%), Table S16 ([3]; MQC (nominal as E14)): 80.6%; Mean accuracy (%), Table S18 ([3]; HQC (nominal as E15)): 98.6%; Mean accuracy (%), Table S18 ([3]; LQC (nominal as E13)): 103.0%; Mean accuracy (%), Table S18 ([3]; MQC (nominal as E14)): 98.2%; Mean accuracy (%), Table S11 ([3]; HQC (nominal as E15)): 93.9%; Mean accuracy (%), Table S11 ([3]; LQC (nominal as E13)): 100.6%; Mean accuracy (%), Table S11 ([3]; MQC (nominal as E14)): 99.4%; Mean accuracy (%), Table S13 ([3]; HQC (nominal as E15)): 95.2%; Mean accuracy (%), Table S13 ([3]; LQC (nominal as E13)): 105.1%; Mean accuracy (%), Table S13 ([3]; MQC (nominal as E14)): 100.4%; Mean accuracy (%), Table S12 ([3]; HQC (nominal as E15)): 87.3%; Mean accuracy (%), Table S12 ([3]; LQC (nominal as E13)): 100.2%; Mean accuracy (%), Table S12 ([3]; MQC (nominal as E14)): 92.6%; Mean accuracy (%), Table S14 ([3]; HQC (nominal as E15)): 92.9%; Mean accuracy (%), Table S14 ([3]; LQC (nominal as E13)): 101.0%; Mean accuracy (%), Table S14 ([3]; MQC (nominal as E14)): 94.5%
CC(C)(O/N=C(\C(=O)N[C@@H]1C(=O)N2C(C(=O)[O-])=C(C[n+]3ccccc3)CS[C@H]12)c1csc(N)n1)C(=O)O [Ceftazidime, ceftazidime]	109.2%	110.0%	109.0%	112.0%	107.7%	111.0%	109.6%	94.9%	112.0%	113.1%	93.8%	111.5%	101.73%	97.6%	99.2%	106.0%	103.0%	104.3%	105.2%	100.5%	Mean accuracy (%), Table S16 ([3]; LQC (nominal as E13)): 105.0%; Mean accuracy (%), Table S16 ([3]; MQC (nominal as E14)): 100.4%; Mean accuracy (%), Table S18 ([3]; HQC (nominal as E15)): 103.8%; Mean accuracy (%), Table S18 ([3]; LQC (nominal as E13)): 103.5%; Mean accuracy (%), Table S18 ([3]; MQC (nominal as E14)): 106.4%; Mean accuracy (%), Table S11 ([3]; HQC (nominal as E15)): 99.5%; Mean accuracy (%), Table S11 ([3]; LQC (nominal as E13)): 97.8%; Mean accuracy (%), Table S11 ([3]; MQC (nominal as E14)): 105.0%; Mean accuracy (%), Table S13 ([3]; HQC (nominal as E15)): 99.4%; Mean accuracy (%), Table S13 ([3]; LQC (nominal as E13)): 102.6%; Mean accuracy (%), Table S13 ([3]; MQC (nominal as E14)): 101.0%; Mean accuracy (%), Table S12 ([3]; HQC (nominal as E15)): 100.3%; Mean accuracy (%), Table S12 ([3]; LQC (nominal as E13)): 100.3%; Mean accuracy (%), Table S12 ([3]; MQC (nominal as E14)): 105.0%; Mean accuracy (%), Table S14 ([3]; HQC (nominal as E15)): 107.7%; Mean accuracy (%), Table S14 ([3]; LQC (nominal as E13)): 98.8%; Mean accuracy (%), Table S14 ([3]; MQC (nominal as E14)): 103.0%
Cn1c(N)c(NC(=O)NCCN)c[n+]1CC1=C(C(=O)O)N2C(=O)[C@@H](NC(=O)/C(=N\OC(C)(C)C(=O)[O-])c3nsc(N)n3)[C@H]2SC1 [Ceftolozane, ceftolozane]	113.3%	106.4%	109.8%	112.0%	107.2%	111.3%	105.1%	106.0%	97.2%	101.0%	97.5%	90.0%	107.69%	93.2%	91.3%	94.7%	94.1%	91.4%	94.3%	90.8%	Mean accuracy (%), Table S16 ([3]; LQC (nominal as E13)): 86.1%; Mean accuracy (%), Table S16 ([3]; MQC (nominal as E14)): 90.4%; Mean accuracy (%), Table S18 ([3]; HQC (nominal as E15)): 93.9%; Mean accuracy (%), Table S18 ([3]; LQC (nominal as E13)): 87.5%; Mean accuracy (%), Table S18 ([3]; MQC (nominal as E14)): 96.2%; Mean accuracy (%), Table S11 ([3]; HQC (nominal as E15)): 86.5%; Mean accuracy (%), Table S11 ([3]; LQC (nominal as E13)): 86.9%; Mean accuracy (%), Table S11 ([3]; MQC (nominal as E14)): 86.4%; Mean accuracy (%), Table S13 ([3]; HQC (nominal as E15)): 86.3%; Mean accuracy (%), Table S13 ([3]; LQC (nominal as E13)): 91.1%; Mean accuracy (%), Table S13 ([3]; MQC (nominal as E14)): 87.7%; Mean accuracy (%), Table S12 ([3]; HQC (nominal as E15)): 99.3%; Mean accuracy (%), Table S12 ([3]; LQC (nominal as E13)): 99.0%; Mean accuracy (%), Table S12 ([3]; MQC (nominal as E14)): 98.6%; Mean accuracy (%), Table S14 ([3]; HQC (nominal as E15)): 100.8%; Mean accuracy (%), Table S14 ([3]; LQC (nominal as E13)): 89.3%; Mean accuracy (%), Table S14 ([3]; MQC (nominal as E14)): 98.0%
C[C@H]1COc2c(N3CCN(C)CC3)c(F)cc3c(=O)c(C(=O)O)cn1c23 [Levofloxacin, levofloxacin]	98.8%	113.0%	103.4%	99.5%	112.8%	103.9%	101.3%	110.7%	105.2%	103.6%	114.0%	106.1%	98.42%	–	–	–	–	–	–	–	–
